Columns and labels:
A549/ATCC = assay: NCI 60 panel growth inhibition (SRB), non-small cell lung cancer; type: cell-based, human; conditions: for GI%: 10 μM
Method in brief: (§1)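 Selected compounds progressed from a single-dose mean-graph screen to five-concentration testing. Percentage growth, with negative values indicating cell kill below Tz, was computed per level, giving TGI among three parameters.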

EKVX = assay: as above; type: cell-based, human; conditions: for GI%: 10 μM
Method in brief: as §1

HOP-62 = assay: as above; type: cell-based, human
Method in brief: as §1

HOP-92 = assay: as above; type: cell-based, human; conditions: for GI%: HOP-92, 10 μM
Method in brief: as §1

NCI-H226 = assay: as above; type: cell-based, human; conditions: for GI%: NCI-H226, 10 μM
Method in brief: as §1

NCI-H23 = assay: as above; type: cell-based, human; conditions: for GI%: NCI-H23, 10 μM
Method in brief: as §1

NCI-H322M = assay: as above; type: cell-based, human; conditions: for GI%: 10 μM
Method in brief: as §1

NCI-H460 = assay: as above; type: cell-based, human; conditions: for GI%: NCI-H460, 10 μM
Method in brief: as §1

NCI-H522 = assay: as above; type: cell-based, human; conditions: for GI%: NCI-H522, 10 μM
Method in brief: as §1

COLO 205 = assay: NCI 60 panel growth inhibition (SRB), colon cancer; type: cell-based, human
Method in brief: as §1

HCC-2998 = assay: NCI 60 panel growth inhibition (SRB), colon cancer; type: cell-based, human; conditions: for GI%: HCC-2998, 10 μM
Method in brief: as §1

HCT-116 = assay: NCI 60 panel growth inhibition (SRB), colon cancer; type: cell-based, human; conditions: for GI%: HCT-116, 10 μM
Method in brief: as §1

HCT-15 = assay: NCI 60 panel growth inhibition (SRB), colon cancer; type: cell-based, human; conditions: for GI%: HCT-15, 10 μM
Method in brief: as §1

KM12 = assay: NCI 60 panel growth inhibition (SRB), colon cancer; type: cell-based, human; conditions: for GI%: KM12, 10 μM
Method in brief: as §1

SW-620 = assay: NCI 60 panel growth inhibition (SRB), colon cancer; type: cell-based, human; conditions: for GI%: SW-620, 10 μM
Method in brief: as §1

NCI/ADR-RES = assay: NCI 60 panel growth inhibition (SRB), ovarian cancer; type: cell-based, human; conditions: for GI%: 10 μM
Method in brief: as §1

OVCAR-8 = assay: as above; type: cell-based, human; conditions: for GI%: OVCAR-8, 10 μM
Method in brief: as §1

786-0 = assay: NCI 60 panel growth inhibition (SRB), renal cancer; type: cell-based, human; conditions: for GI%: 786-0, 10 μM
Method in brief: as §1

A498 = assay: NCI 60 panel growth inhibition (SRB), renal cancer; type: cell-based, human; conditions: for GI%: A498, 10 μM
Method in brief: as §1

ACHN = assay: NCI 60 panel growth inhibition (SRB), renal cancer; type: cell-based, human; conditions: for GI%: 10 μM
Method in brief: as §1

CAKI-1 = assay: NCI 60 panel growth inhibition (SRB), renal cancer; type: cell-based, human; conditions: for GI%: CAKI-1, 10 μM
Method in brief: as §1

RXF 393 = assay: NCI 60 panel growth inhibition (SRB), renal cancer; type: cell-based, human; conditions: for GI%: RXF 393, 10 μM
Method in brief: as §1

SN12C = assay: NCI 60 panel growth inhibition (SRB), renal cancer; type: cell-based, human; conditions: for GI%: 10 μM
Method in brief: as §1

TK-10 = assay: NCI 60 panel growth inhibition (SRB), renal cancer; type: cell-based, human; conditions: for GI%: TK-10, 10 μM
Method in brief: as §1

UO-31 = assay: NCI 60 panel growth inhibition (SRB), renal cancer; type: cell-based, human; conditions: for GI%: UO-31, 10 μM
Method in brief: as §1

DU-145 = assay: NCI 60 panel growth inhibition (SRB), prostate cancer; type: cell-based, human; conditions: for GI%: DU-145, 10 μM
Method in brief: as §1

PC-3 = assay: as above; type: cell-based, human; conditions: for GI%: PC-3, 10 μM
Method in brief: as §1

BT-549 = assay: NCI 60 panel growth inhibition (SRB), breast cancer; type: cell-based, human; conditions: for GI%: BT-549, 10 μM
Method in brief: as §1

HS 578T = assay: as above; type: cell-based, human; conditions: for GI%: 10 μM
Method in brief: as §1

MCF7 = assay: as above; type: cell-based, human; conditions: for GI%: MCF7, 10 μM
Method in brief: as §1

MDA-MB-231/ATCC = assay: as above; type: cell-based, human; conditions: for GI%: 10 μM
Method in brief: as §1

MDA-MB-468 = assay: as above; type: cell-based, human; conditions: for GI%: MDA-MB-468, 10 μM
Method in brief: as §1

T-47D = assay: as above; type: cell-based, human
Method in brief: as §1

[1] = test system: NCI 60 cancer cell line panel; assay: NCI 60 panel growth inhibition (SRB), whole panel; type: cell-based, human; conditions: for Mean GI%: mean over NCI 60 panel, 10 μM
Method in brief: as §1

With COc1cccc(-c2nc3ccccc3s2)c1OCC(=O)NN=C1C(=O)Nc2ccc([N+](=O)[O-])cc21 [Compound 9j, 2-(2-(Benzo[d]thiazol-2-yl)-6-methoxyphenoxy)-N′-(5-nitro-2-oxoindolin-3-ylidene)acetohydrazide] the GI% (A549/ATCC) was 5.97%, the GI% (EKVX) was 26.64% and the GI% (HOP-62; HOP-62, 10 μM) was “– (GI% < 5%)”. The GI% (HOP-92) was 30.70%, the GI% (NCI-H226) was 21.82% and the GI% (NCI-H23) was 22.82%. For the same compound, the GI% (NCI-H322M) was 6.18%, the GI% (NCI-H460) was “– (GI% < 5%)” and the GI% (NCI-H522) was “– (GI% < 5%)”. The GI% (COLO 205; COLO 205, 10 μM) was “– (GI% < 5%)”, the GI% (HCC-2998) was “– (GI% < 5%)” and the GI% (HCT-116) was 7.08%. The GI% (HCT-15) was 5.47%, the GI% (KM12) was 5.79% and the GI% (SW-620) was “– (GI% < 5%)”. The GI% (NCI/ADR-RES) was 6.51%, the GI% (OVCAR-8) was “– (GI% < 5%)” and the GI% (786-0) was “– (GI% < 5%)”. For the same compound, the GI% (A498) was “– (GI% < 5%)”, the GI% (ACHN) was 11.44% and the GI% (CAKI-1) was 28.19%. For the same compound, the GI% (RXF 393) was 9.05%, the GI% (SN12C) was 11.67% and the GI% (TK-10) was “– (GI% < 5%)”. The GI% (UO-31) was 25.41%, the GI% (DU-145) was 6.78% and the GI% (PC-3) was 18.80%. The GI% (BT-549) was “– (GI% < 5%)”, the GI% (HS 578T) was “– (GI% < 5%)” and the GI% (MCF7) was 25.07%. For the same compound, the GI% (MDA-MB-231/ATCC) was 8.73%, the GI% (MDA-MB-468) was 6.21% and the GI% (T-47D; 10 μM) was “– (GI% < 5%)”. For the same compound, the “Mean GI%” value [1] was “– (GI% < 5%)” and the melting point was 276 to 278 °C.

COc1ccc2c(c1)C(=NNC(=O)COc1cc(-c3nc4ccccc4s3)ccc1OC)C(=O)N2 [Compound 9o, 2-(5-(Benzo[d]thiazol-2-yl)-2-methoxyphenoxy)-N′-(5-methoxy-2-oxoindolin-3-ylidene)acetohydrazide] showed a GI% (A549/ATCC) of 39.87%, a GI50 (A549/ATCC; Homo sapiens, five dose) of 30.9 µM and a GI% (EKVX) of 55.62%. It also gave a GI50 (EKVX; Homo sapiens, five dose) of 20 µM, a GI50 (HOP-62; Homo sapiens, HOP-62, five dose) of 7.84 µM and a GI% (HOP-92) of 15.22%. For the same compound, the GI50 (HOP-92; Homo sapiens, HOP-92, five dose) was 51.9 µM, the GI50 (NCI-H226; Homo sapiens, NCI-H226, five dose) was 21.3 µM and the GI% (NCI-H226) was 5.08%. It also gave a GI50 (NCI-H23; Homo sapiens, NCI-H23, five dose) of 3.03 µM, a GI% (NCI-H23) of 84.74% and a GI% (NCI-H322M) of 9.70%. For the same compound, the GI50 (NCI-H322M; Homo sapiens, five dose) was over 100 µM, the GI50 (NCI-H460; Homo sapiens, NCI-H460, five dose) was 9.26 µM and the GI% (NCI-H460) was 106.89%. The GI50 (NCI-H522; Homo sapiens, NCI-H522, five dose) was 48 µM, the GI% (NCI-H522) was 5.70% and the GI50 (COLO 205; Homo sapiens, COLO 205, five dose) was 10.6 µM. For the same compound, the GI% (HCC-2998) was 44.35%, the GI50 (HCC-2998; Homo sapiens, HCC-2998, five dose) was 5.34 µM and the GI% (HCT-116) was 87.90%. The GI50 (HCT-116; Homo sapiens, HCT-116, five dose) was 4.5 µM, the GI% (HCT-15) was 127.40% and the GI50 (HCT-15; Homo sapiens, HCT-15, five dose) was 3.6 µM. For the same compound, the GI50 (KM12; Homo sapiens, KM12, five dose) was over 100 µM, the GI% (KM12) was 36.53% and the GI50 (SW-620; Homo sapiens, SW-620, five dose) was 2.27 µM. The GI% (SW-620) was 148.26%, the GI% (NCI/ADR-RES) was 130.36% and the GI50 (NCI/ADR-RES; Homo sapiens, five dose) was 18.5 µM. For the same compound, the GI50 (OVCAR-8; Homo sapiens, OVCAR-8, five dose) was 4.02 µM, the GI% (OVCAR-8) was 93.38% and the GI% (786-0) was 75.63%. The GI50 (786-0; Homo sapiens, 786-0, five dose) was 16.1 µM, the GI% (A498) was “– (GI% < 5%)” and the GI50 (A498; Homo sapiens, A498, five dose) was over 100 µM. It also gave a GI% (ACHN) of 96.99%, a GI50 (ACHN; Homo sapiens, five dose) of 6.7 µM and a GI% (CAKI-1) of 72.22%. The GI50 (CAKI-1; Homo sapiens, CAKI-1, five dose) was 56.2 µM, the GI50 (RXF 393; Homo sapiens, RXF 393, five dose) was 5.06 µM and the GI% (RXF 393) was 129.01%. For the same compound, the GI% (SN12C) was 24.01%, the GI50 (SN12C; Homo sapiens, five dose) was 25.6 µM and the GI50 (TK-10; Homo sapiens, TK-10, five dose) was 71.7 µM. It also gave a GI% (TK-10) of 86.88%, a GI50 (UO-31; Homo sapiens, UO-31, five dose) of 2.03 µM and a GI% (UO-31) of 44.24%. It also gave a GI% (DU-145) of 130.12%, a GI50 (DU-145; Homo sapiens, DU-145, five dose) of 2.92 µM and a GI50 (PC-3; Homo sapiens, PC-3, five dose) of 3.78 µM. The GI% (PC-3) was 49.56%, the GI% (BT-549) was 33.89% and the GI50 (BT-549; Homo sapiens, BT-549, five dose) was 17.6 µM. For the same compound, the GI% (HS 578T) was 34.64%, the GI50 (HS 578T; Homo sapiens, five dose) was 24.8 µM and the GI50 (MCF7; Homo sapiens, MCF7, five dose) was 3.44 µM. It also gave a GI% (MCF7) of 82.77%, a GI% (MDA-MB-231/ATCC) of 75.41% and a GI50 (MDA-MB-231/ATCC; Homo sapiens, five dose) of 5.44 µM. The GI50 (MDA-MB-468; Homo sapiens, MDA-MB-468, five dose) was 3.72 µM, the GI% (MDA-MB-468) was 60.54% and the GI50 (T-47D; Homo sapiens, T47D, five dose) was 41 µM. The GI50 ([1]; Homo sapiens, five dose, NCI cancer cell lines, read-out: GI50 reached (most sensitive NCI cell line)) was 2.02 µM, the “Mean GI%” value [1] was 55.91% and the melting point was 199 to 201 °C.

From paper PMC11396129, “Oxindole–benzothiazole hybrids as CDK2 inhibitors and anticancer agents: design, synthesis and biological evaluation” (BMC Chemistry, 2024)
